Source: BindingDB's records for doi:10.1016/j.ejmech.2021.113795 (Hong Kong Polytechnic University, 2021)
pIC50: −log10 of the molar value.

How the values were obtained:
[1] = target: ATP-dependent translocase ABCB1 (Homo sapiens, UniProt P08183); test: Inhibition of P-glycoprotein in human LCC6MDR cells assessed as reversal fold by measuring reduction in paclitaxel by measuring paclitaxel IC50 at 1 uM after 5 days by Cell Titer-Glo luminescence assay
[2] = Inhibition of MRP1 in human 2008/MRP1 cells assessed as reversal of doxorubicin resistance by measuring doxorubicin IC50 at 1 uM after 5 days by Cell Titer-Glo luminescence assay

Chain of ATP-dependent translocase ABCB1 (P08183 whole entry): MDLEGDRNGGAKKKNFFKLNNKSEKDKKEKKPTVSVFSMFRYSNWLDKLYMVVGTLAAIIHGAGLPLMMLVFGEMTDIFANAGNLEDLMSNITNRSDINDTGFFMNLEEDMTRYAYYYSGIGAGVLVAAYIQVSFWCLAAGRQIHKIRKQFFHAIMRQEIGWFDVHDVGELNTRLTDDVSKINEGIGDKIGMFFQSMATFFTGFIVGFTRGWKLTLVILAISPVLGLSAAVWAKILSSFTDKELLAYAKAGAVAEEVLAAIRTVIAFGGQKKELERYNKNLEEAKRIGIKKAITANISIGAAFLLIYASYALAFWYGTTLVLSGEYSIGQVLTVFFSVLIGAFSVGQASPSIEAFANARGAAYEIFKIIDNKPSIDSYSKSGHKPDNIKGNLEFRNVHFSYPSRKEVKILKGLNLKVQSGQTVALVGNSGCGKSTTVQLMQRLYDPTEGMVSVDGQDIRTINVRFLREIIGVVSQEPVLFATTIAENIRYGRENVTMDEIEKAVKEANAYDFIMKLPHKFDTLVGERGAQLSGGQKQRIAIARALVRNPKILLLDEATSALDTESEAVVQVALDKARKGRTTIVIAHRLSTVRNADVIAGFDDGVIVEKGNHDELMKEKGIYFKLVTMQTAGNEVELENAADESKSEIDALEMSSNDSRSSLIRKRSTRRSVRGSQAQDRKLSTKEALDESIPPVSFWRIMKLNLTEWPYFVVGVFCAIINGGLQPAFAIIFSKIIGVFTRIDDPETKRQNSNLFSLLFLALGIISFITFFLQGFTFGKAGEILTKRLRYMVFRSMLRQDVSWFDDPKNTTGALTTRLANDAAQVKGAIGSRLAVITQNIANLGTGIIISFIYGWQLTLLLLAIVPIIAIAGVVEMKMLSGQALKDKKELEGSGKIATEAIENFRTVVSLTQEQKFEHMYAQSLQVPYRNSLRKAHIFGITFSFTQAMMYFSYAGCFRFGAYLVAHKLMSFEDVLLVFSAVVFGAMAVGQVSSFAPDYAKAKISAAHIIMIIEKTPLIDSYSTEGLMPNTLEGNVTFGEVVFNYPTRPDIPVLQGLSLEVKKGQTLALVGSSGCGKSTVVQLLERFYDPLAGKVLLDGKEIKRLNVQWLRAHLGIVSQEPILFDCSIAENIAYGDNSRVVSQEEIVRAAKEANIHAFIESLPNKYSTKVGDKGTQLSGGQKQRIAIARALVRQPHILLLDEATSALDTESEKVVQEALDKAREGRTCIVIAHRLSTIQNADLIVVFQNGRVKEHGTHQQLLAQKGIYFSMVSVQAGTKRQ

IC50 [1] [nM] | pIC50 [2] | SMILES
2.2 | 6.47 | COc1cc(OC)c2c(c1)O[C@H](c1ccc(OC)c(OC)c1)[C@H](OC(=O)c1ccc(F)c(NC(=O)c3cc(OC)c(OC)c(OC)c3)c1)C2
1.8 | 6.45 | COc1cc(OC)c2c(c1)O[C@H](c1ccc(OC)c(OC)c1)[C@@H](OC(=O)c1ccc(F)c(NC(=O)c3cc(OC)c(OC)c(OC)c3)c1)C2
